According to ChEMBL document CHEMBL1131265, “The de novo design and synthesis of cyclic urea inhibitors of factor Xa: initial SAR studies” (Bioorg Med Chem Lett, 1998):

What was measured:
Serine protease 1 [1] = target: T1, Serine protease 1 (Homo sapiens, UniProt P07477); test: Compound was tested for inhibition of trypsin.
Coagulation factor X = Coagulation factor X (Homo sapiens, UniProt P00742); test: Compound was tested for inhibition of blood coagulation factor X
Prothrombin = Prothrombin (Homo sapiens, UniProt P00734); test: Compound was tested for inhibition of thrombin.; set-up: species or system Oryctolagus cuniculus
Serine protease 1 [2] = target: T1, Serine protease 1; test: Compound was tested for inhibition of trypsin

T1 sequence (P07477 whole entry): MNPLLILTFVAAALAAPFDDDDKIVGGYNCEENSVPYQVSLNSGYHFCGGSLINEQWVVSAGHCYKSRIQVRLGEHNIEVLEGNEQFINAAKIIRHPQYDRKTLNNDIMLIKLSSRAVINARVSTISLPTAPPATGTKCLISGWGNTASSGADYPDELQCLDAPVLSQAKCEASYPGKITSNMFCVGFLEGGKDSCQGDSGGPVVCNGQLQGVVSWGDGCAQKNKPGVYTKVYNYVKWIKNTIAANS
Coagulation factor X, sequence (P00742 41-179 limits assumed): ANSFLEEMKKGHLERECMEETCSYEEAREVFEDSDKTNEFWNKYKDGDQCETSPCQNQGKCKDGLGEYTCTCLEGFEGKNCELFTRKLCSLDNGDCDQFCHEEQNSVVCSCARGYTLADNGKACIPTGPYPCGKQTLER
Coagulation factor X, sequence (P00742 235-488 limits assumed): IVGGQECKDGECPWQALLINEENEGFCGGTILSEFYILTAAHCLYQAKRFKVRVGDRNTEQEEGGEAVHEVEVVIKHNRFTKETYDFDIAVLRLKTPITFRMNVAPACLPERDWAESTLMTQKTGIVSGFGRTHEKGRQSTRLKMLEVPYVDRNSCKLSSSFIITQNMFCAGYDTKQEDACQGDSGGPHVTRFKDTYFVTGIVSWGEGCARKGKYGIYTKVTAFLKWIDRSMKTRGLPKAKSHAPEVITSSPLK

| Structure (SMILES) | Ki (Serine protease 1 [1]) | Ki (Coagulation factor X) | Ki (Prothrombin) | Ki (Serine protease 1 [2]) |
| --- | --- | --- | --- | --- |
| N=C(N)c1ccc(N2CCCCN(C3CCN(Cc4ccccc4)CC3)C2=O)cc1 | > 1600 nM | 7500 nM | > 21000 nM | – |
| N=C(N)c1cccc(N2CCN(C3CCN(Cc4ccccc4)CC3)C2=O)c1 | – | 2100 nM | 11000 nM | – |
| N=C(N)c1cccc(N2CCCCN(C3CCN(Cc4ccccc4)CC3)C2=O)c1 | 282 nM | 102 nM | 2000 nM | – |
| N=C(N)c1cccc(N2CCCN(C3CCN(Cc4ccccc4)CC3)C2=O)c1 | – | 400 nM | 7300 nM | – |
| N=C(N)c1cccc(NC(=O)NC2CCN(Cc3ccccc3)CC2)c1 | > 1200 nM | 4900 nM | > 21000 nM | – |
| N=C(N)c1cccc(N2CCCCN(C3CCN(C(=N)N)CC3)C2=O)c1 | – | 2500 nM | > 21000 nM | – |
| N=C(N)c1ccc(N2CCCCN(c3cccc(C(=N)N)c3)C2=O)cc1 | 120 nM | 800 nM | 9300 nM | – |
| CC(=N)N1CC[C@H](Oc2ccc(C(Cc3ccc4ccc(C(=N)N)cc4c3)C(=O)O)cc2)C1 (some centres undefined) | – | – | – | 1100 nM |
